Blank lines part the entries; values can stand above or below the compound they belong to.
Tests used:
[1] = system: spared nerve injury (SNI) model of neuropathic pain in rats; assay: Mechanical threshold (von Frey) to hindpaw withdrawal in spared nerve injury (SNI) rats; assay type: in vivo, rat; conditions: for effect of agonist alone on latency to hindpaw withdrawal (mechanical): 100 μg intrathecal; for effect on behavioral signs of neuropathic pain (mechanical threshold / latency to hindpaw withdrawal): dose series
Excerpt: (§1) Male Sprague-Dawley rats (Charles Rivers Laboratories, Inc) were used, and weighed 280-320 g at the time of surgery and intrathecal catheter implantation, and 340-380 g during pharmacological testing. Animals were housed in individual cages on a 12-hour light/dark cycle starting at 6 a.m., and were given food and water […]. All animal use protocols were approved by the Institutional Animal Care and Use Committee (IACUC) of Tulane University.
(§2) Neuropathic pain was modeled in rats using the spared nerve injury model (“SNI”), which is widely accepted as a model for neuropathic pain. To produce the model, rats were anesthetized with isoflurane (5% induction, then 1.5% maintenance in oxygen). As previously described, an incision was made in the skin at the level of the trifurcation of the left sciatic nerve (Decosterd et al., 2000). The overlying muscles were retracted, exposing the common peroneal, tibial, and sural nerves. The common peroneal and tibial nerves were ligated with 6-0 silk (Ethicon, Somerville, N.J.), and then the knot and adjacent nerve (2 mm) were transected. Care was taken to avoid touching the sural nerve branch. The muscle was then sutured with 4-0 absorbable sutures (Ethicon) and the wound was closed with metal clips.
(§3) At the time of nerve injury, animals were re-anesthetized with isoflurane (Baxter, Deerfield, Ill.), and then placed in a stereotaxic apparatus (Stoelting, Wood Dale, Ill.). As previously described (Malkmus et al., 2004), rats were implanted with polyethylene-10 (PE-10, Clay Adams, Sparks, Md.) intrathecal catheters. Briefly, the animal's head was flexed forward in the stereotaxic apparatus, an incision was made in the skin at the back of the head and neck, and the cisternal membrane was exposed by sharp dissection. The membrane was gently punctured with the tip of a #15 scalpel blade, and the distal end of a 7.5 cm long PE-10 catheter was passed through the opening in the cisternal membrane, into the intrathecal space. The catheter was loosely sutured to subcutaneous tissue, leaving the proximal end external to the animal and accessible to the experimenter, and the skin was then approximated using 4-0 absorbable sutures (Ethicon).
(§4) Following surgery, rats were allowed 7 days to recover prior to drug administration and experimentation. To minimize any effects of animal handling on experimental data, drugs and vehicle (saline, or saline and DMSO) were administered via remote injection. PE-10 tubing, filled with vehicle or drug, was used to connect a Hamilton microsyringe to a 30-gauge microinjector, through which 15-20 μL of vehicle or drug was delivered to the lumbar region of the spinal cord via the intrathecal catheter. Progress of the injection was visually confirmed by observing the movement of a small air bubble within the PE-10 tubing. Injectors were left in place an additional minute after fluid delivery, to minimize backflow within the catheter, and animals were then returned to the testing box.
(§5) All drug solutions were freshly prepared daily. After evaporating methyl acetate solvent under a gentle nitrogen stream, 15-deoxy-Δ^12,14 PGJ2 was reconstituted in isotonic saline (comprising 0.9% sodium chloride in water, also called “normal saline”). Rosiglitazone was diluted to the concentrations indicated in the FIGS. with a solution of 30% dimethylsulfoxide (DMSO) and 70% isotonic saline. 15-deoxy-Δ^12,14 PGJ2, rosiglitazone, BADGE, and DMSO were all obtained from Cayman Chemicals (Ann Arbor, Mich.). As used herein, the term “vehicle” refers to the solvent used to dilute the drugs, and may comprise without limitation, DMSO, saline, and water.
(§6) Data are presented as mean±standard error of the mean (SEM). Differences between means were analyzed by two-way repeated-measures analysis of variance (ANOVA), with drug treatment as the between-subjects variable and time as the repeated measure. […]

SNI rats = conditions: rat, in vivo
[2] = system: spared nerve injury (SNI) model of neuropathic pain in rats; assay: Cold allodynia (acetone drop, paw withdrawal duration) in SNI rats; assay type: in vivo, rat
Excerpt: as §1, §2, §3, §4, §5, §6

[3] = system: spared nerve injury (SNI) model of neuropathic pain in mice; assay: Mechanical threshold (von Frey) to hindpaw withdrawal in SNI mice; assay type: in vivo, mouse; conditions: intrathecal
Experimental: (§7) Male CD1 mice (Charles Rivers Laboratories, Inc) were used, and weighed 18-22 g at the time of surgery, and 29-32 g during pharmacological testing. To produce the SNI model in mice, surgical procedures essentially identical to those used in rat were used. Unlike the rat SNI model, where an indwelling catheter was inserted surgically, vehicle or drugs were injected directly into the intrathecal space of the unanesthetized mouse using the classical method of Hylden and Wilcox (“Intrathecal morphine in mice: a new technique” Eur. J. Pharmacol. 17:313-6, 1980) to administer drugs to the intrathecal space dorsal to but not within the spinal cord. Briefly, a piece of cloth was used to restrain the mouse by cradling the iliac crest between one's thumb and forefinger. The L5-L6 spinal bones were located, and a 0.5 inch 30G hypodermic needle was inserted perpendicularly into the L4-L5 interspinous space. Upon insertion, the needle was angled about 30°-45° from the coronal (frontal) plane, and then advanced slightly. The needle angle was then adjusted gently, until paw or tail movement was evoked, whereupon the needle was held in position and 5 μL of saline or drug was administered via a 25 μL Hamilton syringe.
(§8) Data are presented as mean±standard error of the mean (SEM). Differences between means were analyzed by two-way repeated-measures analysis of variance (ANOVA), with drug treatment as the between-subjects variable and time as the repeated measure. If statistically significant differences (p<0.05) were detected, the analyses were followed by post hoc t-tests.
(§9) The procedures used to evaluate behavioral signs of mechanical and cold allodynia were essentially the same for rats as they were for mice. Animals were acclimated to a stainless steel grid within individual Plexiglas boxes for 30-60 minutes, and then tested for mechanical allodynia and cold allodynia. In all animals, mechanical allodynia was assessed using von Frey (VF) filaments (Stoelting, Inc), and was done before assessing cold allodynia.
To assess mechanical allodynia, the plantar region of each hind paw was stimulated with an incremental series of 8 different VF hairs (monofilaments of logarithmically varying stiffness). In SNI rats and mice, the stimulus region was localized to the sural innervation territory of the lateral aspect of the plantar hind paw. The 50% withdrawal threshold (“mechanical” threshold) was determined using the up-down method of Dixon, modified by Chaplan et al. (Chaplan et al., 1994). First, an intermediate von Frey monofilament (e.g., for rats, number 4.31 was used, which exerts a force of 2.0 g) was applied perpendicular to the plantar skin, causing a slight bending of the hair. […]

[4] = system: spared nerve injury (SNI) model of neuropathic pain in mice; assay: Cold allodynia (acetone drop, paw withdrawal duration) in SNI mice; assay type: in vivo, mouse; conditions: intrathecal
Experimental: as §7, §8, §9
Cold allodynia was evaluated by applying a drop of acetone to the plantar paw of control and SNI rats. Acetone was applied via a syringe connected to PE-90 tubing, flared at the tip to a diameter of 3.5 mm. Surface tension maintained the volume of the drop to 10-12 μL. The length of time the animal lifted or shook its paw was recorded. The duration of paw withdrawal was recorded for 30 seconds, and three observations were averaged. […] In such cases acetone testing was either terminated, or that data was not included in the final analysis.

[5] = Heneka et al. 2005; Maeshiba et al. 1997; cited from earlier work
[6] = system: animals subjected to sham SNI surgery; assay: Accelerating rotarod test of motor coordination in sham SNI rats; assay type: in vivo, rat
Experimental: To evaluate the effect of PPARγ agonists on proprioceptive function, rats were placed on an accelerating rotarod (Stoelting, Wood Dale, III). The rotating rod was subdivided into four compartments for the simultaneous assessment of four animals. Initially rotating at a rate of 4 rpm, the system was adjusted gradually over 10 minutes to a maximum speed of 40 rpm. The time that a rat remained on the rotating rod without falling off was recorded—the rotarod duration. After sham SNI surgery and one day before testing, animals were acclimated to the rotarod for 5-10 trials, yielding average latencies of approximately 3 minutes. On the day of testing, rotarod duration was measured three times prior to drug or vehicle administration, and the times averaged. After drug administration, rotarod duration was measured in triplicate at 60 and 120 minutes from the time of administration, with durations averaged for each time point.
(§10) To assess more subtle behavioral effects, we evaluated the effects of rosiglitazone on motor coordination and sensory thresholds in uninjured rats.

[7] = system: animals subjected to sham SNI surgery; assay: Sensory thresholds (mechanical, cold, infrared heat) in rats subjected to sham SNI surgery; assay type: in vivo, rat; conditions: p>0.05
Experimental: as §9
To assess mechanical allodynia, the plantar region of each hind paw was stimulated with an incremental series of 8 different VF hairs (monofilaments of logarithmically varying stiffness). In SNI rats and mice, the stimulus region was localized to the sural innervation territory of the lateral aspect of the plantar hind paw. The 50% withdrawal threshold (“mechanical” threshold) was determined using the up-down method of Dixon, modified by Chaplan et al. (Chaplan et al., 1994). First, an intermediate von Frey monofilament (e.g., for rats, number 4.31 was used, which exerts a force of 2.0 g) was applied perpendicular to the plantar skin, causing a slight bending of the hair. In the event of a positive response (defined as rapid withdrawal of the paw within 6 seconds), a smaller filament was tested. In the event of a negative response, a larger filament was tested. The mechanical threshold is the smallest amount of force required to evoke a positive response. […] In such cases von Frey testing was either terminated, or that data was not included in the final analysis.
Cold allodynia was evaluated by applying a drop of acetone to the plantar paw of control and SNI rats. Acetone was applied via a syringe connected to PE-90 tubing, flared at the tip to a diameter of 3.5 mm. Surface tension maintained the volume of the drop to 10-12 μL. The length of time the animal lifted or shook its paw was recorded. The duration of paw withdrawal was recorded for 30 seconds, and three observations were averaged. […]
as §10

Structure (SMILES): CCCCC/C=C/C=C1/C(=O)C=C[C@@H]1CC=CCCCC(=O)O (stereo in doubt) [15-deoxy-Δ^12,14 PGJ2, (Z)-7-[(1S,5E)-5-[(E)-oct-2-enylidene]-4-oxo-1-cyclopent-2-enyl]hept-5-enoic acid]
effect of agonist alone on latency to hindpaw withdrawal (mechanical) ([1]; SNI rats): increased latency to hindpaw withdrawal
dissipation of analgesic effect (mechanical threshold) ([1]; intrathecal, SNI rats): dissipated after four hours
onset of analgesic effect after injection (mechanical threshold) ([1]; intrathecal, SNI rats): ≤ 30 min
time of peak analgesic effect after injection (mechanical threshold) ([1]; intrathecal, SNI rats): about 60 minutes
ED50, log dose-response curve, mechanical threshold (hindpaw withdrawal) ([1]; intrathecal, SNI rats, 60 minutes after injection): 73.97 μg
effect on behavioral signs of neuropathic pain (mechanical threshold / latency to hindpaw withdrawal) ([1]; intrathecal, SNI rats): reduced behavioral signs of neuropathic pain
gross behavioral changes or other obvious deleterious effects (SNI rats): neither 15-deoxy-Δ^12,14 PGJ2 nor rosiglitazone produced gross behavioral changes or other obvious deleterious effects

Structure (SMILES): CC(C)(c1ccc(OCC2CO2)cc1)c1ccc(OCC2CO2)cc1 (stereo not shown) [BADGE, bisphenol A diglycidyl ether]
effect of antagonist administered alone on hindpaw withdrawal latency ([1]; administered alone, SNI rats): did not have a significant effect on hindpaw withdrawal latency
ED50, log dose-response curve, block of 15-deoxy-Δ^12,14 PGJ2-induced elevation of mechanical threshold ([1]; intrathecal co-administration with 100 μg 15-deoxy-Δ^12,14 PGJ2, 60 minutes after injection, SNI rats): 11.44 μg
effect of co-administered antagonist on analgesic effects of 15-deoxy-Δ^12,14 PGJ2 (mechanical threshold) ([1]; intrathecal co-administration with 100 μg 15-deoxy-Δ^12,14 PGJ2, SNI rats): eliminated the analgesic effects of 15-deoxy-Δ^12,14 PGJ2
effect of co-administered antagonist on rosiglitazone analgesia (mechanical hypersensitivity) ([1]; intrathecal co-administration with 100 μg rosiglitazone, SNI rats): eliminated the analgesic effects of 100 μg rosiglitazone on mechanical hypersensitivity in a dose-dependent manner
effect of co-administered antagonist on rosiglitazone analgesia (cold hypersensitivity) ([2]; intrathecal co-administration with 100 μg rosiglitazone): dose-dependently eliminated the analgesic effects of rosiglitazone

Structure (SMILES): CCc1ccc(CCOc2ccc(CC3SC(=O)NC3=O)cc2)nc1 (stereo not shown) [pioglitazone, 5-[[4-[2-(5-ethylpyridin-2-yl)ethoxy]phenyl]methyl]thiazolidine-2,4-dione]
onset of anti-allodynic effect after injection (mechanical threshold) ([3]; 150 μg dose): ≤ 30 min
time after which anti-allodynic effect dissipated (mechanical threshold) ([3]; 150 μg dose): 90 min
time of peak anti-allodynic effect after injection (mechanical threshold) ([3]; 150 μg dose): 30 min
effect on behavioral signs of neuropathic pain (threshold to hindpaw withdrawal, von Frey) ([3]; dose series): reduced behavioral signs of neuropathic pain in a dose-dependent and reversible manner
onset of analgesic effects after injection (cold allodynia) [4]: ≤ 30 min
time of most pronounced analgesic effects (cold allodynia) [4]: approximately 60 minutes
time within which analgesic effects began to dissipate (cold allodynia) [4]: ≤ 90 min
effect on cold hypersensitivity (paw withdrawal duration after acetone) ([4]; dose series): decreased cold hypersensitivity in a dose-dependent and reversible manner
ability to cross the blood brain barrier [5]: can cross the blood brain barrier

effect on cold response [7]: does not affect
effect on latency to paw withdrawal response to an infrared heat (IR) stimulus [7]: does not affect
effect on mechanical threshold [7]: does not affect
Structure (SMILES): CN(CCOc1ccc(CC2SC(=O)NC2=O)cc1)c1ccccn1 (stereo not shown) [rosiglitazone, 5-[[4-[2-(methyl-pyridin-2-yl-amino)ethoxy]phenyl]methyl]thiazolidine-2,4-dione]
effect of agonist alone on latency to hindpaw withdrawal (mechanical) ([1]; SNI rats): reduced behavioral signs of neuropathic pain in a reversible manner
dissipation of analgesic effect (mechanical threshold) ([1]; intrathecal, SNI rats): dissipated after four hours
onset of analgesic effect after injection (mechanical threshold) ([1]; intrathecal, SNI rats): ≤ 30 min
time of peak analgesic effect after injection (mechanical threshold) ([1]; intrathecal, SNI rats): about 90 minutes
effect on behavioral signs of neuropathic pain (mechanical threshold / latency to hindpaw withdrawal) ([1]; intrathecal, SNI rats): reduced behavioral signs of neuropathic pain in a dose-dependent and reversible manner
effect on motor coordination (rotarod), supra-maximal dose ([6]; 1000 μg): reduced motor coordination, but this effect was small, not statistically significant
effect on motor coordination (rotarod) ([6]; p>0.05): does not affect
gross behavioral changes or other obvious deleterious effects (SNI rats): neither 15-deoxy-Δ^12,14 PGJ2 nor rosiglitazone produced gross behavioral changes or other obvious deleterious effects
effect of agonist alone on cold hypersensitivity ([2]; 100 μg intrathecal): decreased cold hypersensitivity in a reversible manner
dissipation of analgesic effects (cold allodynia) ([2]; intrathecal): dissipated after four hours
onset of analgesic effects after injection (cold allodynia) ([2]; intrathecal): ≤ 30 min
time of most pronounced analgesic effects (cold allodynia) ([2]; intrathecal): approximately 90 minutes
effect on cold hypersensitivity (paw withdrawal duration after acetone) ([2]; intrathecal, dose series): decreased cold hypersensitivity in a dose-dependent and reversible manner
